Results taken from patent publication US10160747B2, “Compounds and methods for kinase modulation, and indications therefor” (Plexxikon Inc., priority 2016, dated 2018).

biological target: T1, BA/F3-FLT3-ITD + D835Y (Homo sapiens, UniProt P36888, D835Y, cells depend on it, form not given); assay: Engineered BA/F3 cell growth assay, FLT3 ITD/D835Y; format: cell-based, murine; settings: 3 d growth
T1 sequence (P36888 with tags, fused parts or gaps INS600HVDFREYEYD/D835Y): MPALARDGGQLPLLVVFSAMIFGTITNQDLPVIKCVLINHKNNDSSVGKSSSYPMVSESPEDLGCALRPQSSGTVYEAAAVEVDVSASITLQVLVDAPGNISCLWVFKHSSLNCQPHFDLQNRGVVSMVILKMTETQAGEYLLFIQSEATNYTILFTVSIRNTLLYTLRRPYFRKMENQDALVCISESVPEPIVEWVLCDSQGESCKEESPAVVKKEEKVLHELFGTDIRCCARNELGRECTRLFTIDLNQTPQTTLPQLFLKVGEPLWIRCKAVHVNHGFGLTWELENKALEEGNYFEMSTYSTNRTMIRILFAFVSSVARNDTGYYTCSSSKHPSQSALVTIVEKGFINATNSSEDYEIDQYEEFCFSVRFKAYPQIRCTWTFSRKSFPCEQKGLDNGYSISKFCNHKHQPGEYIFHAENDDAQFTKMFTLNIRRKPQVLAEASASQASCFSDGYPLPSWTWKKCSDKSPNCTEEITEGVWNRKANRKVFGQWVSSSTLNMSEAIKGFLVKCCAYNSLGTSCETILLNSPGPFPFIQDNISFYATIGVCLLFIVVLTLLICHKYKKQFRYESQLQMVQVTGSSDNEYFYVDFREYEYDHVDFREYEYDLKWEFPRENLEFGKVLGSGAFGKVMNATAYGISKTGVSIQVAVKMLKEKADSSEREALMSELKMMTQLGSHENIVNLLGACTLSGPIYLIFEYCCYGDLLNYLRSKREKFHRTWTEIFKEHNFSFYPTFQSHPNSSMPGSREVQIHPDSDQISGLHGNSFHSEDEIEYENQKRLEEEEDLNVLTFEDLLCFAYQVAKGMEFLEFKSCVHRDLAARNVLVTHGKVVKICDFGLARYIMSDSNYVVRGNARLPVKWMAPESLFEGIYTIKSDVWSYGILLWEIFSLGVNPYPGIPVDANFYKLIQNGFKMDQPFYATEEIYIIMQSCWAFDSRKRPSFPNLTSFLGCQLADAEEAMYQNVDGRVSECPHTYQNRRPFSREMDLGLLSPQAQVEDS
How it was run: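 Murine Ba/F3 cells transfected with full-length FLT3 ITD/D835Y, grown without IL-3 so growth depends on FLT3. Seeded at 1×10^4 cells/well, 8-point 1:3 series to 1 μM top (0.2% DMSO), 3 days at 37 °C. CellTiter-Glo luminescence (ATP) versus concentration gave IC50.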

GI50, 0.0001 to 10 µM:
COc1ncc(NC(=O)Cc2ccc(-c3cnc4[nH]c(-c5ccnc(C#N)c5)cc4c3)cc2F)cc1C(F)(F)F [Compound P-0013, 2-[4-[2-(2-cyano-4-pyridyl)-1H-pyrrolo[2,3-b]pyridin-5-yl]-2-fluoro-phenyl]-N-[6-methoxy-5-(trifluoromethyl)-3-pyridyl]acetamide]
O=C(Cc1ccc(-c2cnc(Nc3cnn(C4CC4)c3)nc2)cc1)Nc1cncc(C(F)(F)F)c1 [Compound P-0231, 2-[4-[2-[(1-cyclopropylpyrazol-4-yl)amino]pyrimidin-5-yl]phenyl]-N-[5-(trifluoromethyl)-3-pyridyl]acetamide]
CCn1cc(Nc2ncc(-c3ccc(CC(=O)Nc4ccc(C(F)(F)F)cn4)c(F)c3)cn2)cn1 [Compound P-0256, 2-[4-[2-[(1-ethylpyrazol-4-yl)amino]pyrimidin-5-yl]-2-fluoro-phenyl]-N-[5-(trifluoromethyl)-2-pyridyl]acetamide]
O=C(Cc1ccc(-c2cnc(Nc3cnn(C4CC4)c3)nc2)cc1F)Nc1cc(C(F)(F)F)ccn1 [Compound P-0244, 2-[4-[2-[(1-cyclopropylpyrazol-4-yl)amino]pyrimidin-5-yl]-2-fluoro-phenyl]-N-[4-(trifluoromethyl)-2-pyridyl]acetamide]
CCn1cc(Nc2ncc(-c3ccc(CC(=O)Nc4ccc(C(F)(F)F)cn4)cc3)cn2)cn1 [Compound P-0251, 2-[4-[2-[(1-ethylpyrazol-4-yl)amino]pyrimidin-5-yl]phenyl]-N-[5-(trifluoromethyl)-2-pyridyl]acetamide]
O=C(Cc1ccc(-c2cnc(Nc3cnn(C4CC4)c3)nc2)cc1F)Nc1cnc(Cl)c(C(F)(F)F)c1 [Compound P-0240, N-[6-chloro-5-(trifluoromethyl)-3-pyridyl]-2-[4-[2-[(1-cyclopropylpyrazol-4-yl)amino]pyrimidin-5-yl]-2-fluoro-phenyl]acetamide]
COc1ncc(NC(=O)Cc2ccc(-c3cnc4[nH]nc(C5CC5)c4c3)cc2)cc1C(F)(F)F [Compound P-0263, 2-[4-(3-cyclopropyl-1H-pyrazolo[3,4-b]pyridin-5-yl)phenyl]-N-[6-methoxy-5-(trifluoromethyl)-3-pyridyl]acetamide]
O=C(Cc1ccc(-c2cnc(Nc3cnn(C(F)F)c3)nc2)cc1)Nc1cc(C(F)(F)F)ccn1 [Compound P-0023, 2-[4-[2-[[1-(difluoromethyl)pyrazol-4-yl]amino]pyrimidin-5-yl]phenyl]-N-[4-(trifluoromethyl)-2-pyridyl]acetamide]
CCn1cc(Nc2ncc(-c3ccc(CC(=O)Nc4cnc(OC)c(C(F)(F)F)c4)c(F)c3)cn2)cn1 [Compound P-0259, 2-[4-[2-[(1-ethylpyrazol-4-yl)amino]pyrimidin-5-yl]-2-fluoro-phenyl]-N-[6-methoxy-5-(trifluoromethyl)-3-pyridyl]acetamide]
COc1ncc(NC(=O)Cc2ccc(-c3cnc4[nH]nc(Cl)c4c3)cc2)cc1C(F)(F)F [Compound P-0230, 2-[4-(3-chloro-1H-pyrazolo[3,4-b]pyridin-5-yl)phenyl]-N-[6-methoxy-5-(trifluoromethyl)-3-pyridyl]acetamide]
O=C(Cc1ccc(-c2cnc(Nc3cnn(C4CC4)c3)nc2)cc1)Nc1ccc(C(F)(F)F)cn1 [Compound P-0236, 2-[4-[2-[(1-cyclopropylpyrazol-4-yl)amino]pyrimidin-5-yl]phenyl]-N-[5-(trifluoromethyl)-2-pyridyl]acetamide]
CCn1cc(Nc2ncc(-c3ccc(CC(=O)Nc4ccc(C(F)(F)F)nc4)cc3)cn2)cn1 [Compound P-0252, 2-[4-[2-[(1-ethylpyrazol-4-yl)amino]pyrimidin-5-yl]phenyl]-N-[6-(trifluoromethyl)-3-pyridyl]acetamide]
Cn1cnc(Nc2ncc(-c3ccc(CC(=O)Nc4cc(C(F)(F)F)ccn4)cc3F)cn2)c1 [Compound P-0018, 2-[3-fluoro-4-[2-[(1-methylimidazol-4-yl)amino]pyrimidin-5-yl]phenyl]-N-[4-(trifluoromethyl)-2-pyridyl]acetamide]
COc1n[nH]c2ncc(-c3ccc(CC(=O)Nc4cnc(C)c(C(F)(F)F)c4)cc3)cc12 [Compound P-0218, 2-[4-(3-methoxy-1H-pyrazolo[3,4-b]pyridin-5-yl)phenyl]-N-[6-methyl-5-(trifluoromethyl)-3-pyridyl]acetamide]
Cc1ncc(NC(=O)Cc2ccc(-c3cnc(Nc4cnn(C)c4C)nc3)cc2)cc1C(F)(F)F [Compound P-0229, 2-[4-[2-[(1,5-dimethylpyrazol-4-yl)amino]pyrimidin-5-yl]phenyl]-N-[6-methyl-5-(trifluoromethyl)-3-pyridyl]acetamide]
Cn1cnc(Nc2ncc(-c3cc(F)c(CC(=O)Nc4cc(C(F)(F)F)ccn4)cc3F)cn2)c1 [Compound P-0020, 2-[2,5-difluoro-4-[2-[(1-methylimidazol-4-yl)amino]pyrimidin-5-yl]phenyl]-N-[4-(trifluoromethyl)-2-pyridyl]acetamide]
COCCn1cc(Nc2ncc(-c3ccc(CC(=O)Nc4cnc(OC)c(C(F)(F)F)c4)cc3)cn2)cn1 [Compound P-0271, 2-[4-[2-[[1-(2-methoxyethyl)pyrazol-4-yl]amino]pyrimidin-5-yl]phenyl]-N-[6-methoxy-5-(trifluoromethyl)-3-pyridyl]acetamide]
COCCn1cc(Nc2ncc(-c3ccc(CC(=O)Nc4cc(C(F)(F)F)ccn4)cc3)cn2)cn1 [Compound P-0222, 2-[4-[2-[[1-(2-methoxyethyl)pyrazol-4-yl]amino]pyrimidin-5-yl]phenyl]-N-[4-(trifluoromethyl)-2-pyridyl]acetamide]
COc1ncc(NC(=O)Cc2ccc(-c3cnc(Nc4cnn(C)c4)nc3)c(F)c2)cc1C(F)(F)F [Compound P-0206, 2-[3-fluoro-4-[2-[(1-methylpyrazol-4-yl)amino]pyrimidin-5-yl]phenyl]-N-[6-methoxy-5-(trifluoromethyl)-3-pyridyl]acetamide]
COc1ncc(NC(=O)Cc2ccc(-c3cnc4[nH]nc(OC)c4c3)cc2)cc1C(F)(F)F [Compound P-0212, 2-[4-(3-methoxy-1H-pyrazolo[3,4-b]pyridin-5-yl)phenyl]-N-[6-methoxy-5-(trifluoromethyl)-3-pyridyl]acetamide]
CCn1cc(Nc2ncc(-c3ccc(CC(=O)Nc4cnc(OC)c(C(F)(F)F)c4)cc3F)cn2)cn1 [Compound P-0246, 2-[4-[2-[(1-ethylpyrazol-4-yl)amino]pyrimidin-5-yl]-3-fluoro-phenyl]-N-[6-methoxy-5-(trifluoromethyl)-3-pyridyl]acetamide]
Cn1cnc(Nc2ncc(-c3ccc(CC(=O)Nc4cc(C(F)(F)F)ccn4)cc3)cn2)c1 [Compound P-0022, 2-[4-[2-[(1-methylimidazol-4-yl)amino]pyrimidin-5-yl]phenyl]-N-[4-(trifluoromethyl)-2-pyridyl]acetamide]
O=C(Cc1ccc(-c2cnc3[nH]c(-c4ccnc(N5CCOCC5)c4)cc3c2)c(F)c1)Nc1cncc(C(F)(F)F)c1 [Compound P-0201, 2-[3-fluoro-4-[2-(2-morpholino-4-pyridyl)-1H-pyrrolo[2,3-b]pyridin-5-yl]phenyl]-N-[5-(trifluoromethyl)-3-pyridyl]acetamide]
COCCn1cc(Nc2ncc(-c3ccc(CC(=O)Nc4ccc(C(F)(F)F)nc4)cc3)cn2)cn1 [Compound P-0273, 2-[4-[2-[[1-(2-methoxyethyl)pyrazol-4-yl]amino]pyrimidin-5-yl]phenyl]-N-[6-(trifluoromethyl)-3-pyridyl]acetamide]
O=C(Cc1ccc(-c2cnc(Nc3cnn(C4CC4)c3)nc2)cc1F)Nc1cncc(C(F)(F)F)c1 [Compound P-0238, 2-[4-[2-[(1-cyclopropylpyrazol-4-yl)amino]pyrimidin-5-yl]-2-fluoro-phenyl]-N-[5-(trifluoromethyl)-3-pyridyl]acetamide]
CC(C)(O)C#Cc1cc2cc(-c3ccc(CC(=O)Nc4cncc(C(F)(F)F)c4)cc3)cnc2[nH]1 [Compound P-0204, 2-[4-[2-(3-hydroxy-3-methyl-but-1-ynyl)-1H-pyrrolo[2,3-b]pyridin-5-yl]phenyl]-N-[5-(trifluoromethyl)-3-pyridyl]acetamide]
